35 compounds from patent US20090312288A1 (TAKEDA PHARMACEUTICAL COMPANY LIMITED, priority 2008, published 2009) can be followed below.

The target of the assay is Aurora B/INCENP (Homo sapiens, UniProt Q96GD4). The experiment in a line: Determination of inhibition of AIK: Aurora B/INCENP direct fluorescence polarization (IMAP) assay. Format: biochemical. To be noted: 10 uM ATP, 0.8 nM Aurora B/INCENP; values given as bins; read-out: IC50 of Exemplified Compounds Against AIK B. In general terms: Fluorescence polarisation rises when a labelled molecule tumbles more slowly, as on binding a larger partner.
Chain of Aurora B/INCENP (Q96GD4 whole entry): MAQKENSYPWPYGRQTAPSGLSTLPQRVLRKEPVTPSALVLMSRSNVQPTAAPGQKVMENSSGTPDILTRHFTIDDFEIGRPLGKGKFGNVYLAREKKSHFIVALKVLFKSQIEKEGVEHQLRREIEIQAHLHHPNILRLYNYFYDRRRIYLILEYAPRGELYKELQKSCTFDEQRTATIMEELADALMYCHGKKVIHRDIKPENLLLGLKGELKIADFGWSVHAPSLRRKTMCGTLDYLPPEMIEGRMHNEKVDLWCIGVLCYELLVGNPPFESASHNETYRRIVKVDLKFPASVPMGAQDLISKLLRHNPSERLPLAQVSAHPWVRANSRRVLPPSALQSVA
Chain of Aurora B/INCENP (Q9NQS7 whole entry partner): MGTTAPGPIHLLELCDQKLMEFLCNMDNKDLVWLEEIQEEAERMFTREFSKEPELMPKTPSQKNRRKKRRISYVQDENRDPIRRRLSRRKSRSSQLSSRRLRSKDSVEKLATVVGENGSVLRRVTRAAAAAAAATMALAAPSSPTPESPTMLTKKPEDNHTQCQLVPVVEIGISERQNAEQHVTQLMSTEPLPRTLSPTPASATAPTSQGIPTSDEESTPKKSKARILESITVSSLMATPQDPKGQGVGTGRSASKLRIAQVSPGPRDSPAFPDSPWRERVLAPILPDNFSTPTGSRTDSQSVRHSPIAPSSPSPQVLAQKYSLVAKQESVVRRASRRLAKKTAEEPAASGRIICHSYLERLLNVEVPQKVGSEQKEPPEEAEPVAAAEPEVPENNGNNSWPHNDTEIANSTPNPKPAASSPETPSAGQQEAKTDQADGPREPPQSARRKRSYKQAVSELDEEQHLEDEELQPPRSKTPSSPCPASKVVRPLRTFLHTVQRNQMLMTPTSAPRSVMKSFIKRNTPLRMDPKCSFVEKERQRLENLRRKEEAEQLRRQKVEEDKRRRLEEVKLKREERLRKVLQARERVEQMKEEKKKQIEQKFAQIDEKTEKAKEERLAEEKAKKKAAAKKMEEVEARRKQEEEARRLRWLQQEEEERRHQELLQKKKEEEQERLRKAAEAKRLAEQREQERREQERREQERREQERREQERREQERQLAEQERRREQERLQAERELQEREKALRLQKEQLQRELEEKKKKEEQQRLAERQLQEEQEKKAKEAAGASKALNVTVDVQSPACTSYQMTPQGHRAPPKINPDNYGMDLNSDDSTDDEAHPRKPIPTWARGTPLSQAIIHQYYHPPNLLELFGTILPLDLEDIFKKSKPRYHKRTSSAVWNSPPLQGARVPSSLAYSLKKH
Turning to `CCS(=O)(=O)c1cccc(-c2cnc(OCCOC(=O)[C@@H](N)C(C)C)c3[nH]c4ncc(C)cc4c23)c1` [Compound 64, L-Valine-2-[5-(3-ethanesulfonyl-phenyl)-3-methyl-9H-dipyrido[2,3-b;4′,3′-d]pyrrol-8-yloxy]-ethyl ester], the IC50 is 5.6 to 8.5 nM. In the case of `CCN1CCC(COc2ncc(-c3cccc(S(=O)(=O)CC)c3)c3c2[nH]c2ncc(C)cc23)CC1` [Compound 61, 5-(3-Ethanesulfonyl-phenyl)-8-(1-ethyl-piperidin-4-ylmethoxy)-3-methyl-9H-dipyrido[2,3-b;4′,3′-d]pyrrole], the IC50 lay in the range of 5.6 to 8.5 nM.

`CCS(=O)(=O)c1cccc(-c2cc(C(=O)NCCOC)c(C)c3[nH]c4ncc(C)cc4c23)c1` [Compound 90, N-(2-(methoxy)ethyl)-5-(3-(ethylsulfonyl)phenyl)-3,8-dimethyl-9H-pyrido[2,3-b]indole-7-carboxamide]: the IC50 lay in the range of 5.6 to 8.5 nM. `CCS(=O)(=O)c1cccc(-c2cc(Cl)c(OC)c3[nH]c4ncc(C)cc4c23)c1` [Compound 246, 7-chloro-5-(3-(ethylsulfonyl)phenyl)-8-methoxy-3-methyl-9H-pyrido[2,3-b]indole]: the IC50 was in the range of 5.6 to 8.5 nM.

For the compound `CCS(=O)(=O)c1cccc(-c2ccc(OC)c3[nH]c4ncc(Cl)cc4c23)c1` [Compound 218], the IC50 is less than 4 nM. Regarding `Cc1cnc2[nH]c3cc(C(=O)NCCN(C)C)cc(SCc4ccccc4)c3c2c1` [Compound 152, 5-(benzylthio)-N-(2-(dimethylamino)ethyl)-3-methyl-9H-pyrido[2,3-b]indole-7-carboxamide], the IC50 was more than 13 nM. Turning to `CCS(=O)(=O)c1cccc(-c2ccc(OCCCn3cnnc3)c3[nH]c4ncc(C)cc4c23)c1` [Compound 416, 8-(3-(4H-1,2,4-triazol-4-yl)propoxy)-5-(3-(ethylsulfonyl)phenyl)-3-methyl-9H-pyrido[2,3-b]indole], the IC50 fell in the range of 5.6 to 8.5 nM.

Regarding `CCS(=O)(=O)c1cccc(-c2c(Cl)cnc3[nH]c4c(OC)cccc4c23)c1` [Compound 464, 3-chloro-4-(3-(ethylsulfonyl)phenyl)-8-methoxy-9H-pyrido[2,3-b]indole], the IC50 lay within 5.6 to 8.5 nM. Next, `CCS(=O)(=O)c1cccc(-c2cnc(OCCCO)c3[nH]c4ncc(C)cc4c23)c1` [Compound 55, 3-[5-(3-Ethanesulfonyl-phenyl)-3-methyl-9H-dipyrido[2,3-b;4′,3′-d]pyrrol-8-yloxy]-propan-1-ol]: less than 4 nM; `CC(=O)Nc1ccc(Sc2cccc3[nH]c4ncccc4c23)cc1` [Compound 21, N-(4-(9H-pyrido[2,3-b]indol-5-ylthio)phenyl)acetamide]: more than 13 nM; `CCN(CCO)CCOc1ccc(-c2cccc(S(=O)(=O)C3CC3)c2)c2c1[nH]c1ncc(Cl)cc12` [Compound 323, 2-((2-(3-chloro-5-(3-(cyclopropylsulfonyl)phenyl)-9H-pyrido[2,3-b]indol-8-yloxy)ethyl)(ethyl)amino)ethanol]: 5.6 to 8.5 nM. In the case of `CCN(CCO)CCCOc1ccc(-c2cccc(S(=O)(=O)C3CC3)c2)c2c1[nH]c1ncc(C)cc12` [Compound 270, 2-((3-(5-(3-(cyclopropylsulfonyl)phenyl)-3-methyl-9H-pyrido[2,3-b]indol-8-yloxy)propyl)(ethyl)amino)ethanol] it was 4 to 5.5 nM; in that of `CCS(=O)(=O)c1cccc(-c2ccc(OCCCN(C)C)c3[nH]c4ncc(C(F)(F)F)cc4c23)c1` [Compound 258, 3-(5-(3-(ethylsulfonyl)phenyl)-3-(trifluoromethyl)-9H-pyrido[2,3-b]indol-8-yloxy)-N,N-dimethylpropan-1-amine], more than 13 nM; in that of `CCS(=O)(=O)c1cccc(-c2ccc(OCC(F)(F)F)c3[nH]c4ncc(C)cc4c23)c1` [Compound 173, 5-(3-(ethylsulfonyl)phenyl)-3-methyl-8-(2,2,2-trifluoroethoxy)-9H-pyrido[2,3-b]indole], 5.6 to 8.5 nM. Regarding `CCN(CCCOc1ccc(-c2cccc(S(=O)(=O)C3CC3)c2)c2c1[nH]c1ncc(C)cc12)CCOP(=O)(O)O` [Compound 272, 2-((3-(5-(3-(cyclopropylsulfonyl)phenyl)-3-methyl-9H-pyrido[2,3-b]indol-8-yloxy)propyl)(ethyl)amino)ethyl dihydrogen phosphate], the IC50 lay within 5.6 to 8.5 nM. In the case of `CCS(=O)(=O)c1cccc(-c2cc(C(=O)NC3CCN(CCO)CC3)c(C)c3[nH]c4ncc(C)cc4c23)c1` [Compound 456, 5-(3-(ethylsulfonyl)phenyl)-N-(1-(2-hydroxyethyl)piperidin-4-yl)-3,8-dimethyl-9H-pyrido[2,3-b]indole-7-carboxamide] it was 5.6 to 8.5 nM; in that of `COc1ccc(-c2cccc(S(=O)(=O)[C@@H]3CCNC3)c2)c2c1[nH]c1ncc(C)cc12` [Compound 160, (R)-8-methoxy-3-methyl-5-(3-(pyrrolidin-3-ylsulfonyl)phenyl)-9H-pyrido[2,3-b]indole], 5.6 to 8.5 nM; in that of `COc1ccc(-c2cccc(C(=O)NCCO)c2)c2c1[nH]c1ncc(C)cc12` [Compound 168, N-(2-hydroxyethyl)-3-(8-methoxy-3-methyl-9H-pyrido[2,3-b]indol-5-yl)benzamide], 8.6 to 13 nM. With `Cc1cnc2[nH]c3c(OCC4CCN(C)CC4)ccc(-c4cccc(S(=O)(=O)N(C)C)c4)c3c2c1` [Compound 181, N,N-dimethyl-3-(3-methyl-8-((1-methylpiperidin-4-yl)methoxy)-9H-pyrido[2,3-b]indole-5-yl)benzenesulfonamide], the IC50 is 8.6 to 13 nM. Take `CCS(=O)(=O)c1cccc(-c2cnc(NCCN(C)C)c3[nH]c4ncc(C)cc4c23)c1` [Compound 42, N′-[5-(3-Ethanesulfonyl-phenyl)-3-methyl-9H-dipyrido[2,3-b;4′,3′-d]pyrrol-8-yl]-N,N-dimethyl-ethane-1,2-diamine]: the IC50 is 8.6 to 13 nM. With `CCS(=O)(=O)c1cccc(-c2cc(C(=O)N3CCC(CCO)CC3)c(C)c3[nH]c4ncc(C)cc4c23)c1` [Compound 454, (5-(3-(ethylsulfonyl)phenyl)-3,8-dimethyl-9H-pyrido[2,3-b]indol-7-yl)(4-(2-hydroxyethyl)piperidin-1-yl)methanone], the IC50 lay within 8.6 to 13 nM.

On to `CCS(=O)(=O)c1cccc(-c2cc(C(=O)N3CCN(C)CC3)cc3[nH]c4ncc(C)cc4c23)c1` [Compound 141, [5-(3-Ethanesulfonyl-phenyl)-3-methyl-9H-pyrido[2,3-b]indol-7-yl]-(4-methyl-piperazin-1-yl)-methanone], for which the IC50 is more than 13 nM. For `CCS(=O)(=O)c1cccc(-c2cc(C(=O)N3CCOCC3)c(C)c3[nH]c4ncc(C)cc4c23)c1` [Compound 96], the IC50 was in the range of 8.6 to 13 nM. For the compound `CCS(=O)(=O)c1cccc(-c2cc(C(=O)NCCN(C)C)c(C)c3[nH]c4ncc(C)cc4c23)c1` [Compound 113], the IC50 fell in the range of 8.6 to 13 nM. Consider `CCS(=O)(=O)c1cccc(-c2ccc(OCCCc3cccnc3)c3[nH]c4ncc(C)cc4c23)c1` [Compound 414, 5-(3-(ethylsulfonyl)phenyl)-3-methyl-8-(3-(pyridin-3-yl)propoxy)-9H-pyrido[2,3-b]indole], for which the IC50 was in the range of 8.6 to 13 nM. Regarding `CCS(=O)(=O)c1cccc(-c2cc(C(=O)OC)c(Br)c3[nH]c4ncc(C)cc4c23)c1` [Compound 148, 8-Bromo-5-(3-ethanesulfonyl-phenyl)-3-methyl-9H-pyrido[2,3-b]indole-7-carboxylic acid methyl ester], the IC50 lay within 4 to 5.5 nM.

On to `CCS(=O)(=O)c1cccc(-c2c(Cl)c(C(=O)OC)cc3[nH]c4ncc(C)cc4c23)c1` [Compound 149, 6-Chloro-5-(3-ethanesulfonyl-phenyl)-3-methyl-9H-pyrido[2,3-b]indole-7-carboxylic acid methyl ester], for which the concentration for half-maximal inhibition (IC50) is more than 13 nM. Consider `CCOc1cccc(-c2ccc(OCC3CCN(C)CC3)c3[nH]c4ncc(C)cc4c23)c1` [Compound 184, 5-(3-ethoxyphenyl)-3-methyl-8-((1-methylpiperidin-4-yl)methoxy)-9H-pyrido[2,3-b]indole], for which the IC50 was more than 13 nM. In the case of `CCS(=O)(=O)c1cccc(-c2cc(C(=O)OC)cc3[nH]c4ncc(C)cc4c23)c1` [Compound 133, 5-(3-Ethanesulfonyl-phenyl)-3-methyl-9H-pyrido[2,3-b]indole-7-carboxylic acid methyl ester] it was 8.6 to 13 nM; in that of `Cc1cnc2[nH]c3c(C)c(C(=O)NC4CCN(C)CC4)cc(-c4cccc(S(=O)(=O)C5CC5)c4)c3c2c1` [Compound 154, 5-(3-(cyclopropylsulfonyl)phenyl)-3,8-dimethyl-N-(1-methylpiperidin-4-yl)-9H-pyrido[2,3-b]indole-7-carboxamide], 8.6 to 13 nM; in that of `CCS(=O)(=O)c1cccc(-c2cc(CN3CCOCC3)cc3[nH]c4ncc(C)cc4c23)c1` [Compound 136, 5-(3-Ethanesulfonyl-phenyl)-3-methyl-7-morpholin-4-ylmethyl-9H-pyrido[2,3-b]indole], more than 13 nM. Turning to `CCN(CCO)CCCOc1ccc(-c2cccc(S(=O)(=O)CC)c2)c2c1[nH]c1ncc(C)cc12` [Compound 276, 2-(ethyl(3-(5-(3-(ethylsulfonyl)phenyl)-3-methyl-9H-pyrido[2,3-b]indol-8-yloxy)propyl)amino)ethanol], the IC50 is 5.6 to 8.5 nM. In the case of `CCS(=O)(=O)c1cccc(-c2cnc(NCCCN3CCOCC3)c3[nH]c4ncc(C)cc4c23)c1` [Compound 43, [5-(3-Ethanesulfonyl-phenyl)-3-methyl-9H-dipyrido[2,3-b;4′,3′-d]pyrrol-8-yl]-(3-morpholin-4-yl-propyl)-amine] it was 5.6 to 8.5 nM; in that of `CCS(=O)(=O)c1cccc(-c2cnc(C)c3[nH]c4ncc(C)cc4c23)c1` [Compound 47, 5-(3-Ethanesulfonyl-phenyl)-3,8-dimethyl-9H-dipyrido[2,3-b;4′,3′-d]pyrrole], 5.6 to 8.5 nM. In the case of `CCS(=O)(=O)c1cccc(-c2cc(C(=O)N[C@@H]3CCCNC3)c(C)c3[nH]c4ncc(C)cc4c23)c1` [Compound 108, (R)-5-(3-(ethylsulfonyl)phenyl)-3,8-dimethyl-N-(piperidin-3-yl)-9H-pyrido[2,3-b]indole-7-carboxamide], the IC50 is more than 13 nM.

Broadly, the IC50 is the concentration that gives 50% inhibition.
